Reference: paper PMC5590101 (Journal of medicinal chemistry, 2016)
“Also recorded” adds a separate entry of the source.

What was measured:
[1] = tested on: microtubules in A-10 cells; experiment: Microtubule depolymerization in A-10 cells; assay type: cell-based, rat; settings: for fold lower microtubule depolymerizing potency than 3: relative to compound 3; for fold more potent than (±)-1·HCl, microtubule depolymerizing effects: relative to lead (±)-1·HCl; for microtubule depolymerization activity: tested up to 10 µM
[2] = tested on: MDA-MB-435 cells; experiment: SRB antiproliferative assay, MDA-MB-435; assay type: cell-based; settings: for IC50: Homo sapiens, MDA-MB-435, read-out: IC50 ± SD MDA-MB-435; for fold lower antiproliferative potency than 3: MDA-MB-435, relative to compound 3; for fold more potent than (±)-1·HCl, antiproliferative activity (MDA-MB-435): relative to lead (±)-1·HCl
[3] = tested on: HeLa cells; experiment: Cell cycle distribution by flow cytometry; assay type: cell-based; settings: 18 h, five-times the IC50
[4] = target: Bovine brain tubulin (Bos taurus, UniProt P81947+Q6B856); experiment: Inhibition of tubulin assembly; assay type: biochemical; settings: for fold more potent than (±)-1·HCl, tubulin assembly: relative to lead (±)-1·HCl
Sequence of Bovine brain tubulin (Q6B856 whole entry): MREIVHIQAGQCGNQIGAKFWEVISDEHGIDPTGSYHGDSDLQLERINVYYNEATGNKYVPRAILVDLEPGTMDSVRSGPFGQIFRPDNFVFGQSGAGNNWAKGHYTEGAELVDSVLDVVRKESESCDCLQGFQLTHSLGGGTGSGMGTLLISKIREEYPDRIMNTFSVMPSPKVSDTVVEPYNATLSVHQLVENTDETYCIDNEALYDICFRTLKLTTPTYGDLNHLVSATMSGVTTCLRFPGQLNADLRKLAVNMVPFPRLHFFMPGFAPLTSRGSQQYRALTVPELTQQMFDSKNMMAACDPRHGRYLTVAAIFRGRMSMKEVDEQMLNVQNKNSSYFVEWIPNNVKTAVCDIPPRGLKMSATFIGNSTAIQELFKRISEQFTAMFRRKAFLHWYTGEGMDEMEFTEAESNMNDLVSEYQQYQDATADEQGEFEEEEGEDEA
Sequence of Bovine brain tubulin (P81947 whole entry): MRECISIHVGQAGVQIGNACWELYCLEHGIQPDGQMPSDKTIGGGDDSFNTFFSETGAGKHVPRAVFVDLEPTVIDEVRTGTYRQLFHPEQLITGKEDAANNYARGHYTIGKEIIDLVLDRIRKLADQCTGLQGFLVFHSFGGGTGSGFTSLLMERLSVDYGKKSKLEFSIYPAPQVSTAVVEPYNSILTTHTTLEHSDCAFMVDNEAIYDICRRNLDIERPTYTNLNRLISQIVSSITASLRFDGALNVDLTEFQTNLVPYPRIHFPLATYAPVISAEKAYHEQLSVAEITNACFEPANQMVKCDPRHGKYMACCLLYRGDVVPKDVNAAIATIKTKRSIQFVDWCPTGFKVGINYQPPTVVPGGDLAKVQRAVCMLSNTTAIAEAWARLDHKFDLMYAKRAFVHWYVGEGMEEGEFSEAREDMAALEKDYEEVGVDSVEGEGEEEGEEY

[5] = tested on: HeLa; experiment: SRB antiproliferative assay, HeLa; assay type: cell-based; settings: Homo sapiens, HeLa, read-out: IC50 ± SD HeLa
[6] = tested on: HeLa WTβIII; experiment: SRB antiproliferative assay, βIII-tubulin expressing HeLa WTβIII; assay type: cell-based; settings: Homo sapiens, read-out: IC50 ± SD HeLa WTβIII

## CCc1ccc(N(C)c2ncnc3occ(C)c23)cc1 [Compound 8, N-Methyl-N-(4-ethylphenyl)-5-methylfuro[2,3-d]pyrimidin-4-amine]
[1]
  fold lower microtubule depolymerizing potency than 3: 30 fold
[2]
  IC50: 183 ± 13 nM
  fold lower antiproliferative potency than 3: 43 fold

## COc1ccc(/C=C\c2cc(OC)c(OC)c(OC)c2)cc1O [CA-4, combretastatin A-4]
[3]
  accumulation of cells in G2/M: significant accumulation of cells in G2/M

## CSc1ccc(N(C)c2ncnc3occ(C)c23)cc1 [Compound 9, N,5-Dimethyl-N-(4-(methylthio)phenyl)furo[2,3-d]pyrimidin-4-amine]
[1]
  fold lower microtubule depolymerizing potency than 3: 2 fold
  fold more potent than (±)-1·HCl, microtubule depolymerizing effects: equipotent
[4]; relative to compound 3
  fold better than 3, tubulin assembly IC50: 3 fold
[2]
  IC50: 12.3 ± 0.9 nM
  fold lower antiproliferative potency than 3: 3 fold
  fold more potent than (±)-1·HCl, antiproliferative activity (MDA-MB-435): 1.4–2.1 fold

## CCN(c1ccc(OC)cc1)c1ncnc2occ(C)c12 [Compound 4, N-Ethyl-N-(4-methoxyphenyl)-5-methylfuro[2,3-d]pyrimidin-4-amine]
[1]
  fold lower microtubule depolymerizing potency than 3: 2 fold
  fold more potent than (±)-1·HCl, microtubule depolymerizing effects: equipotent
[4]
  fold more potent than (±)-1·HCl, tubulin assembly: about 2 fold
[2]
  IC50: 8.1 ± 0.5 nM
  fold more potent than (±)-1·HCl, antiproliferative activity (MDA-MB-435): 1.4–2.1 fold
[3]
  accumulation of cells in G2/M: significant accumulation of cells in G2/M

## CCCN(c1ccc(OC)cc1)c1ncnc2occ(C)c12 [Compound 6, N-(4-Methoxyphenyl)-5-methyl-N-propylfuro[2,3-d]pyrimidin-4-amine]
[4]
  fold more potent than (±)-1·HCl, tubulin assembly: about 2 fold
[2]
  IC50: 27.3 ± 4.5 nM

## COc1ccc(Nc2ncnc3occ(C)c23)cc1 [Compound 2, N-(4-Methoxyphenyl)-5-methylfuro[2,3-d]pyrimidin-4-amine]
[1]
  microtubule depolymerization activity: inactive; also recorded: essentially devoid of activity

## CC(=O)O[C@H]1C(=O)[C@@]2(C)[C@H]([C@H](OC(=O)c3ccccc3)[C@]3(O)C[C@H](OC(=O)[C@H](O)[C@@H](NC(=O)c4ccccc4)c4ccccc4)C(C)=C1C3(C)C)[C@]1(OC(C)=O)CO[C@@H]1C[C@@H]2O [paclitaxel]
[5]
  IC50: 2.8 ± 0.36 nM
[6]
  IC50: 24 ± 3 nM

## CCCCN(c1ccc(OC)cc1)c1ncnc2occ(C)c12 [Compound 7, N-Butyl-N-(4-methoxyphenyl)-5-methylfuro[2,3-d]pyrimidin-4-amine]
[4]
  fold more potent than (±)-1·HCl, tubulin assembly: about 2 fold
[2]
  IC50: 100 ± 6.5 nM

## COc1ccc(N(c2ncnc3occ(C)c23)C(C)C)cc1 [Compound 5, N-Isopropyl-N-(4-methoxyphenyl)-5-methylfuro[2,3-d]pyrimidin-4-amine]
[1]
  microtubule depolymerization activity: ineffective
[2]
  IC50: 504 ± 28 nM
[2]; antiproliferative, relative to N-Et analogue 4
  fold less potent (IC50) than 4: 60 fold
